Measurements reported in publication PMC8876276 (Pharmaceutics, 2022).

How the values were obtained:
[1] = system: GLP1R localization with the late endosome marker LAMP1; experiment: GLP1R colocalization with late endosome marker LAMP1, confocal microscopy, GLP1R-HEK293 cells; type: cell-based; conditions: 100 nM, 30 min; Pearson's correlation coefficient, 3 independent experiments; Figure 6d
From the text: Nuclei were counterstained with DAPI. Nuclei were counterstained with DAPI.

[2] = system: GLP1R association with early endosomal-associated antigen 1 (EEA1); experiment: GLP1R colocalization with early endosome marker EEA1, confocal microscopy, GLP1R-HEK293 cells; type: cell-based; conditions: 100 nM, 30 min; Pearson's correlation coefficient, 3 independent experiments; Figure 5d
Protocol: For immunofluorescence microscopy, GLP1R-HEK293 cells were seeded at a density of 25,000 cells/well in 96-well imaging plates (Greiner Bio-One) coated with poly-D-lysine. […] Twenty-four hours later, the cells were washed once with Optimem + Glutamax (Thermo Fisher Scientific, Watham, MA, USA) + 0.1% bovine serum albumin (BSA) (Sigma-Aldrich, St. Louis, MO, USA), and then incubated with Optimem + 0.1% BSA for 15 min at 37 °C. Compounds were diluted in Optimem + 0.1% BSA and cell incubations were performed at 37 °C for the timepoints indicated. The compounds were removed and the cells were washed three times with phosphate-buffered saline (PBS) prior to fixation for immunofluorescence microscopy or electron microscopy/NanoSIMS as described below. […]
Analysis of confocal microscopy micrographs was performed using scripts developed in Columbus analysis software (PerkinElmer, Waltham, MA, USA). […] Mean fluorescence intensity for the GLP1R staining was measured from this cell membrane ROI. Fluorescence intensities were normalized to those measured from untreated cells and expressed as mean per cell per well. For colocalization analyses, Pearson’s correlation co-efficient was calculated for the correlation between the red and green channels and expressed as mean per cell per well. […]
Pearson’s correlation co-efficient for GLP1R colocalization with EEA1 was calculated from cytoplasmic ROIs (d). […]

Question: With exenatide as the substance, how does the “GLP1R colocalization with LAMP1” value [1] read?
Answer: Its value is “increase in the GLP1R colocalization with LAMP1”.

Question: And the “GLP1R colocalization with EEA1” value [2]?
Answer: The value was “GLP1R colocalization with EEA1 was observed”.
